Data reported in US5605906A, “Cannabinoid receptor agonists” (Merck Frosst Canada, Inc., priority 1995, dated 1997).
Where “and” joins values, the source holds several entries; their conditions need not be identical. Equal values may be shown once.

Experiments:
[1] = biological target: T1, human peripheral cannabinoid (CB2) receptor (Homo sapiens, UniProt P34972); test: CB2 functional assay: cAMP assay in CHO-K1 cells expressing the CB2 receptor; type: cell-based; settings: forskolin, 37 °C, 15 min
T1 construct: expressed in transfected cells; host or cells: CHO-K1
T1 sequence (P34972 whole entry): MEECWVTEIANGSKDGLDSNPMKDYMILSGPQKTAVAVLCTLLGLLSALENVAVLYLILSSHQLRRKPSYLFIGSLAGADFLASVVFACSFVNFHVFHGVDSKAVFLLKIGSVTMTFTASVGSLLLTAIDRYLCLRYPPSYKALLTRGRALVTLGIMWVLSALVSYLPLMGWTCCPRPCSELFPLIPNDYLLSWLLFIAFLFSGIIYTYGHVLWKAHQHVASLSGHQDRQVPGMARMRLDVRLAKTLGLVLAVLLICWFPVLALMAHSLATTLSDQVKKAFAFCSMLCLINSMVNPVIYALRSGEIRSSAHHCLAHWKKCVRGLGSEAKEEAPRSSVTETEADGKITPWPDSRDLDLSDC
Protocol: Stable cell lines were constructed expressing either the human peripheral cannabinoid (CB2) receptor or the human central cannabinoid (CB 1) receptor as described previously (Gerard. et al., Molecular cloning of a human cannabinoid receptor which is also expressed in testis. Biochem. J. (279)129-134, 1991.). Membranes were prepared from CHO-K1 cells stably expressing the CB2 receptor and HEK293(EBNA) cells stably expressing the CB 1 receptor by differential centrifugation (1000×g for 10 min, then 100,000×g for 30 min, both at 4° C.) following lysis of the cells by nitrogen cavitation at 800 psi for 15 min on ice, as previously described (Frey, E.A., et al., Characterization of the leukotriene D4 receptor in dimethylsulphoxide-dufferentiated U937 cells: comparison with the leukotriene D4 receptor in human-lung and guinea-pig lung. Eur. J. Pharma. (244) 239-250, 1993.). […]
CB2--CHO-K1 cells were seeded at 10^6 cells per 175 cm^2 T-flask in MEM alpha growth medium (MEM alpha medium containing 25 mM HEPES/KOH (pH 7.4), 10% heat inactivated fetal bovine serum, 20 units/ml penicillin G, 20 mg/ml streptomycin sulfate and 500 mg/ml G418) (GIBCO-BRL Canada, Burlington, ON). […] Cell viability was always >96% as determined by trypan blue exclusion. […]

[2] = biological target: T2, human central cannabinoid (CB 1) receptor (Homo sapiens, UniProt P21554); test: CB1 receptor binding assay ([3H]CP55940, HEK293(EBNA) membranes); settings: [3H]CP55940 0.6 nM, pH 7.4, 30 °C, 60 min
T2 construct: expressed in transfected cells; host or cells: HEK293(EBNA)
T2 sequence (P21554 whole entry): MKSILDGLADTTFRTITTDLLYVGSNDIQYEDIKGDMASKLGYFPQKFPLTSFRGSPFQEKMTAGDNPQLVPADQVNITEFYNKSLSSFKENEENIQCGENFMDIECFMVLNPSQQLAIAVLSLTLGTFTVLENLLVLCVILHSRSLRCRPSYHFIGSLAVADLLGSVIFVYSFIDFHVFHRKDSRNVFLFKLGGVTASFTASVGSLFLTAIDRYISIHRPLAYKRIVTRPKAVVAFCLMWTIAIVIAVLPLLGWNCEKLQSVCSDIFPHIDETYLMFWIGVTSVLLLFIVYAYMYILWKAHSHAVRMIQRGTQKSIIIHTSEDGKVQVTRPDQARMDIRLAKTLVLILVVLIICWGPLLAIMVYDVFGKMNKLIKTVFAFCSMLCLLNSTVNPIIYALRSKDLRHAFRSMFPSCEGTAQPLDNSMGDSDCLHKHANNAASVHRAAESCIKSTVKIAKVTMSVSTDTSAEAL
Protocol: The compound of Formula I can be tested using the following assays to determine their affinity for binding to the cannabinoid receptors.
Stable cell lines were constructed expressing either the human peripheral cannabinoid (CB2) receptor or the human central cannabinoid (CB 1) receptor as described previously (Gerard. et al., Molecular cloning of a human cannabinoid receptor which is also expressed in testis. Biochem. J. (279)129-134, 1991.). […]
CB2 receptor binding assays were performed in 0.2 ml of 10 mM HEPES/KOH (pH 7.4) containing 1 mM EDTA, 0.3 mg/ml human serum albumin (HSA), 1 mM MgCl2, and 2.4 nM [^3 H]Win 55212-2 (Dupont-NEN Canada, Mississauga, ON). […] The residual [^3 H]Win 55212-2 or [^3 H]CP55940(-) bound to the filters was determined by liquid scintillation counting following a 6h equilibration in 5 ml Biofluor O) (Dupont-NEN Canada, Mississauga, ON) scintillation cocktail (efficiency for tritium was approximately 55%). […]

[3] = biological target: T1, human peripheral cannabinoid (CB2) receptor; test: CB2 receptor binding assay ([3H]Win 55212-2, CHO-K1 membranes); settings: [3H]Win 55212-2 2.4 nM, pH 7.4, 30 °C, 40 min

Row | SMILES | EC50 [1] | IC50 [2] | Ki [3]
1 | COc1ccc2c(c1)N(C)C(C)(C)[C@@H]1CC[C@@H](C)C[C@@H]21 [Example 1, (6aR,9R,10aR)-3-Methoxy-5,6,6,9-tetramethyl-5,6,6a,7,8,9,10,10a-octahydro-phenanthridine] | 68 nM and 149 nM | 22300 nM and 27400 nM | 73 nM and 55 nM
2 | CCCCCCC(C)(C)c1cc(O)c2c(c1)OC(C)(C)[C@@H]1CC=C(CO)C[C@@H]21 [HU-210, reference compound] |  | 2.5 ± 0.2 nM | 
